Our source for the inhibition and IC50 values is ChEMBL document CHEMBL1149729, “A bioassay for inhibition of serotonin release from bovine platelets” (J Nat Prod, 1992).

Assay [1] can be described thus: Antimigraine activity in ADP-stimulated bovine citreated platelet assessed as inhibition of [14C]serotonin release at 100 uM after 6 mins by scintillation counting. The class given is functional. To be noted: Bos taurus, 0.1 h.
Assay [2] can be described thus: Antimigraine activity in human citreated platelet assessed as inhibition of [14C]serotonin release after 6 mins by scintillation counting. Format: functional, cell-based. To be noted: 0.1 h.
Assay [3] is described as follows: Antimigraine activity in bovine citreated platelet assessed as inhibition of [14C]serotonin release after 6 mins by scintillation counting. Format: functional, cell-based. Conditions: Bos taurus, 0.1 h.

As usually defined, the inhibition is the drop in the measured response relative to a control, in per cent. By IC50 is commonly meant the concentration at which inhibition is half-maximal.

SMILES strings stand for the structures. Structures can show the parent of a compound that is named as a salt.

For the compound `C=C1C(=O)O[C@@H]2C3O[C@]3(C)CC/C=C(\C)CC[C@@H]12` (stereo not given in full), the inhibition at 100 µM in assay [1] was found to be 20.3%. In assay [2], the IC50 came to 5.64 µM. In the case of `C=C1C(=O)O[C@@H]2C[C@@]3(C)CCCC(=C)[C@@H]3C[C@H]12` [ISOALANTOLACTONE], in assay [3], the half-maximal inhibitory concentration (IC50) was over 516 µM.

As for `COc1ccc(CCN(C)CCCC(C#N)(c2ccc(OC)c(OC)c2)C(C)C)cc1OC` (stereo not given) [VERAPAMIL HYDROCHLORIDE], the IC50 in assay [2] is 770 µM; in assay [3], 578 µM.
